Measured values as given in patent US10125126B2, “N-cycloalkyl-N-[(heterocyclylphenyl)methylene]-(thio)carboxamide derivatives” (BAYER CROPSCIENCE AG, priority 2012, dated 2018).

system: Botrytis cinerea; assay: In vivo preventive test on Botrytis cinerea (grey mould); details: 500 ppm of active ingredient; gherkin plants; 4 to 5 days after contamination
Description: In Vivo Preventive Test on Botrytis cinerea (Grey Mould) […] Gherkin plants (“Vert petit de Paris” variety), sown in starter cups on a 50/50 peat soil pozzolana substrate and grown at 24° C., are treated at the Z11 cotyledon stage by spraying with the active ingredient prepared as described above. Plants, used as controls, are treated with the mixture of acetone/tween/DMSO/water not containing the active material. After 24 hours, the plants are contaminated by spraying the cotyledons with an aqueous suspension of cryopreserved Botrytis cinerea spores (50 000 spores per mL). The spores are suspended in a nutrient solution composed of 10 g/L of PDB, 50 g/L of D-Fructose, 2 g/L of NH4NO3 and 1 g/L of KH2PO4. The contaminated gherkin plants are incubated at 17° C. and at 90% relative humidity. Grading (% of efficacy) is carried out 4 to 5 days after the contamination, in comparison with the control plants.

Structure (SMILES)	Efficacy [%]
Cn1nc(C(F)F)c(C(=O)N(Cc2ccccc2-c2csc3ccccc23)C2CC2)c1F [I.156]	97

system: Uromyces appendiculatus; assay: In vivo preventive test on Uromyces appendiculatus (bean rust); details: 100 ppm of active ingredient; bean plants; 11 days after contamination
Description: In Vivo Preventive Test on Uromyces appendiculatus (Bean Rust) […] Bean plants (“Saxa” variety), sown in starter cups on a 50/50 peat soil pozzolana substrate and grown at 24° C., are treated at the 2 leaf stage (9 cm height) by spraying with the active ingredient prepared as described above. Plants, used as controls, are treated with the mixture of acetone/tween/DMSO/water not containing the active material. After 24 hours, the plants are contaminated by spraying the leaves with an aqueous suspension of Uromyces appendiculatus spores (150 000 spores per mL). The spores are collected from infected plants and are suspended in water containing 2.5 mL/L of Tween 80 at 10%. […] Grading (% of efficacy) is carried out 11 days after the contamination, in comparison with the control plants.

Structure (SMILES)	Efficacy [%]
Cn1cc(C(=O)N(Cc2cc(F)ccc2C2(C)CO2)C2CC2)c(C(F)F)n1 (stereo not shown) [I.6]	73
Cn1nc(C(F)F)c(C(=O)N(Cc2cc(F)ccc2C2(C)CO2)C2CC2)c1Cl (stereo not shown) [I.8]	95
Cc1ccc(-c2ccoc2)c(CN(C(=O)c2c(C(F)F)nn(C)c2Cl)C2CC2)c1 [I.37]	83
CC1=NOC(C)(c2ccc(C)cc2CN(C(=O)c2c(C(F)F)nn(C)c2F)C2CC2)C1 (stereo not shown) [I.111]	100
Cc1ccc(-c2csc3ccccc23)c(CN(C(=O)c2c(C(F)F)nn(C)c2F)C2CC2)c1 [I.160]	77

same assay, conditions: 500 ppm of active ingredient; bean plants; 11 days after contamination

Structure (SMILES)	Efficacy [%]
Cn1nc(C(F)F)c(C(=O)N(Cc2ccccc2C2COC2)C2CC2)c1F [I.1]	83
Cn1ccc(-c2ccc(Cl)cc2CN(C(=O)c2c(C(F)F)nn(C)c2F)C2CC2)c1 [I.48]	96
Cn1cc(-c2ccc(Cl)cc2CN(C(=O)c2c(C(F)F)nn(C)c2F)C2CC2)cn1 [I.55]	99
Cn1cc(-c2ccc(F)cc2CN(C(=O)c2c(C(F)F)nn(C)c2F)C2CC2)cn1 [I.56]	85
Cn1nc(C(F)F)c(C(=O)N(Cc2ccccc2-c2cccs2)C2CC2)c1F [I.69]	100
Cn1cc(C(=O)N(Cc2ccccc2-c2ccsc2)C2CC2)c(C(F)F)n1 [I.70]	96
Cn1nc(C(F)F)c(C(=O)N(Cc2ccccc2-c2ccsc2)C2CC2)c1Cl [I.76]	96
CC1CC1N(Cc1ccccc1-c1ccsc1)C(=O)c1cn(C)nc1C(F)F (stereo not shown) [I.87]	84
Cn1nc(C(F)F)c(C(=O)N(Cc2cc(Cl)ccc2-c2csc3ccccc23)C2CC2)c1F [I.155]	99
Cn1nc(C(F)F)c(C(=O)N(Cc2ccccc2Oc2nc(Cl)cc(Cl)n2)C2CC2)c1F [I.168]	99

system: Sphaerotheca fuliginea; assay: In vivo preventive test on Sphaerotheca fuliginea (powdery mildew on cucurbits); details: 100 ppm of active ingredient; gherkin plants; 12 days after contamination
Description: In Vivo Preventive Test on Sphaerotheca fuliginea (Powdery Mildew on Cucurbits) […] Gherkin plants (“Vert petit de Paris” variety), sown in starter cups on a 50/50 peat soil-pozzolana substrate and grown at 24° C., are treated at the Z11 cotyledon stage by spraying with the active ingredient prepared as described above. Plants, used as controls, are treated with the mixture of acetone/tween/DMSO/water not containing the active material. After 24 hours, the plants are contaminated by spraying the cotyledons with an aqueous suspension of Sphaerotheca fuliginea spores (100 000 spores per mL). The spores are collected from infected plants. […] Grading (% of efficacy) is carried out 12 days after the contamination, in comparison with the control plants.

Structure (SMILES)	Efficacy [%]
CC1=NOC(C)(c2ccc(C)cc2CN(C(=O)c2c(C(F)F)nn(C)c2F)C2CC2)C1 (stereo not shown) [I.111]	100
Cc1ccc(-c2csc3ccccc23)c(CN(C(=O)c2c(C(F)F)nn(C)c2F)C2CC2)c1 [I.160]	98

same assay, conditions: 500 ppm of active ingredient; gherkin plants; 12 days after contamination

Structure (SMILES)	Efficacy [%]
Cn1nc(C(F)F)c(C(=O)N(Cc2ccccc2C2COC2)C2CC2)c1F [I.1]	93
Cn1cc(-c2ccc(Cl)cc2CN(C(=O)c2c(C(F)F)nn(C)c2F)C2CC2)cn1 [I.55]	100
Cn1cc(-c2ccc(F)cc2CN(C(=O)c2c(C(F)F)nn(C)c2F)C2CC2)cn1 [I.56]	98
Cn1nc(C(F)F)c(C(=O)N(Cc2ccccc2-c2cccs2)C2CC2)c1F [I.69]	100
Cn1cc(C(=O)N(Cc2ccccc2-c2ccsc2)C2CC2)c(C(F)F)n1 [I.70]	85
Cn1nc(C(F)F)c(C(=O)N(Cc2ccccc2-c2csc3ccccc23)C2CC2)c1F [I.156]	95
Cn1nc(C(F)F)c(C(=O)N(Cc2ccccc2Oc2nc(Cl)cc(Cl)n2)C2CC2)c1F [I.168]	83

system: Puccinia recondita; assay: In vivo preventive test on Puccinia recondita (brown rust on wheat); details: 100 ppm of active ingredient; wheat plants; 12 days after contamination
Description: In Vivo Preventive Test on Puccinia recondita (Brown Rust on Wheat) […] Wheat plants (“Scipion” variety), sown in starter cups on a 50/50 peat soil pozzolana substrate and grown at 22° C., are treated at the 1 leaf stage (10 cm height) by spraying with the active ingredient prepared as described above. Plants, used as controls, are treated with the mixture of acetone/tween/DMSO/water not containing the active material. After 24 hours, the plants are contaminated by spraying the leaves with an aqueous suspension of Puccinia recondita spores (100 000 spores per mL). The spores are collected from an infected plant and are suspended in water containing 2.5 mL/L of Tween 80 at 10%. […] Grading (% of efficacy) is carried out 12 days after the contamination, in comparison with the control plants.

Structure (SMILES)	Efficacy [%]
Cn1cc(C(=O)N(Cc2cc(F)ccc2C2(C)CO2)C2CC2)c(C(F)F)n1 (stereo not shown) [I.6]	81
Cn1nc(C(F)F)c(C(=O)N(Cc2cc(F)ccc2C2(C)CO2)C2CC2)c1Cl (stereo not shown) [I.8]	94
Cc1ccc(-c2ccoc2)c(CN(C(=O)c2c(C(F)F)nn(C)c2Cl)C2CC2)c1 [I.37]	81
CC1=NOC(C)(c2ccc(C)cc2CN(C(=O)c2c(C(F)F)nn(C)c2F)C2CC2)C1 (stereo not shown) [I.111]	88

same assay, conditions: 500 ppm of active ingredient; wheat plants; 12 days after contamination

Structure (SMILES)	Efficacy [%]
Cn1nc(C(F)F)c(C(=O)N(Cc2ccccc2C2COC2)C2CC2)c1F [I.1]	75
Cn1ccc(-c2ccc(Cl)cc2CN(C(=O)c2c(C(F)F)nn(C)c2F)C2CC2)c1 [I.48]	75
Cn1cc(-c2ccc(Cl)cc2CN(C(=O)c2c(C(F)F)nn(C)c2F)C2CC2)cn1 [I.55]	95
Cn1cc(-c2ccc(F)cc2CN(C(=O)c2c(C(F)F)nn(C)c2F)C2CC2)cn1 [I.56]	78
Cn1nc(C(F)F)c(C(=O)N(Cc2ccccc2-c2cccs2)C2CC2)c1F [I.69]	94
Cn1cc(C(=O)N(Cc2ccccc2-c2ccsc2)C2CC2)c(C(F)F)n1 [I.70]	78
Cn1nc(C(F)F)c(C(=O)N(Cc2ccccc2-c2ccsc2)C2CC2)c1Cl [I.76]	93
CC1CC1N(Cc1ccccc1-c1ccsc1)C(=O)c1cn(C)nc1C(F)F (stereo not shown) [I.87]	75
Cn1nc(C(F)F)c(C(=O)N(Cc2cc(Cl)ccc2-c2csc3ccccc23)C2CC2)c1F [I.155]	75
Cn1nc(C(F)F)c(C(=O)N(Cc2ccccc2-c2csc3ccccc23)C2CC2)c1F [I.156]	81
Cn1nc(C(F)F)c(C(=O)N(Cc2ccccc2Oc2nc(Cl)cc(Cl)n2)C2CC2)c1F [I.168]	81

system: not listed separately; assay: log P by HPLC on a reversed-phase column (C 18), EEC Directive 79/831 Annex V.A8; type: physicochemical; details: HPLC on reversed-phase column (C 18), 40° C., 0.1% aqueous formic acid and acetonitrile, linear gradient 10% to 90% acetonitrile
Description: In table 1, the log P values were determined in accordance with EEC Directive 79/831 Annex V.A8 by HPLC (High Performance Liquid Chromatography) on a reversed-phase column (C 18), using the method described below: Temperature: 40° C.; Mobile phases: 0.1% aqueous formic acid and acetonitrile; linear gradient from 10% acetonitrile to 90% acetonitrile. Calibration was carried out using unbranched alkan-2-ones (comprising 3 to 16 carbon atoms) with known log P values (determination of the log P values by the retention times using linear interpolation between two successive alkanones). lambda-max-values were determined using UV-spectra from 200 nm to 400 nm and the peak values of the chromatographic signals.

Structure (SMILES)	logP
Cn1nc(C(F)F)c(C(=O)N(Cc2ccccc2C2COC2)C2CC2)c1F [I.1]	1.51
Cn1cc(C(=O)N(Cc2cc(F)ccc2C2(C)CO2)C2CC2)c(C(F)F)n1 (stereo not shown) [I.6]	2.53
Cn1nc(C(F)F)c(C(=O)N(Cc2cc(F)ccc2C2(C)CO2)C2CC2)c1Cl (stereo not shown) [I.8]	3.00
Cc1ccc(-c2ccoc2)c(CN(C(=O)c2c(C(F)F)nn(C)c2Cl)C2CC2)c1 [I.37]	3.71
Cn1ccc(-c2ccc(Cl)cc2CN(C(=O)c2c(C(F)F)nn(C)c2F)C2CC2)c1 [I.48]	3.71
Cn1cc(-c2ccc(Cl)cc2CN(C(=O)c2c(C(F)F)nn(C)c2F)C2CC2)cn1 [I.55]	2.80
Cn1cc(-c2ccc(F)cc2CN(C(=O)c2c(C(F)F)nn(C)c2F)C2CC2)cn1 [I.56]	2.50
Cn1nc(C(F)F)c(C(=O)N(Cc2ccccc2-c2cccs2)C2CC2)c1F [I.69]	3.64
Cn1cc(C(=O)N(Cc2ccccc2-c2ccsc2)C2CC2)c(C(F)F)n1 [I.70]	3.17
Cn1nc(C(F)F)c(C(=O)N(Cc2ccccc2-c2ccsc2)C2CC2)c1Cl [I.76]	3.71
CC1CC1N(Cc1ccccc1-c1ccsc1)C(=O)c1cn(C)nc1C(F)F (stereo not shown) [I.87]	3.48
CC1=NOC(C)(c2ccc(C)cc2CN(C(=O)c2c(C(F)F)nn(C)c2F)C2CC2)C1 (stereo not shown) [I.111]	2.98
Cn1nc(C(F)F)c(C(=O)N(Cc2cc(Cl)ccc2-c2csc3ccccc23)C2CC2)c1F [I.155]	4.74
Cn1nc(C(F)F)c(C(=O)N(Cc2ccccc2-c2csc3ccccc23)C2CC2)c1F [I.156]	4.27
Cc1ccc(-c2csc3ccccc23)c(CN(C(=O)c2c(C(F)F)nn(C)c2F)C2CC2)c1 [I.160]	4.64
Cn1nc(C(F)F)c(C(=O)N(Cc2ccccc2Oc2nc(Cl)cc(Cl)n2)C2CC2)c1F [I.168]	3.50

system: Septoria tritici; assay: In vivo preventive test on Septoria tritici (wheat); details: 100 ppm of active ingredient; wheat plants; 24 days after contamination
Description: In Vivo Preventive Test on Septoria tritici (Wheat) […] Wheat plants (“Scipion” variety), sown in starter cups on a 50/50 peat soil pozzolana substrate and grown at 22° C., are treated at the 1 leaf stage (10 cm height) by spraying with the active ingredient prepared as described above. Plants, used as controls, are treated with the mixture of acetone/tween/DMSO/water not containing the active material. After 24 hours, the plants are contaminated by spraying the leaves with an aqueous suspension of cryopreserved Septoria tritici spores (500 000 spores per mL). The contaminated wheat plants are incubated for 72 hours at 18° C. and at 100% relative humidity, and then for 21 days at 90% relative humidity. Grading (% of efficacy) is carried out 24 days after the contamination, in comparison with the control plants.

Structure (SMILES)	Efficacy [%]
Cn1cc(C(=O)N(Cc2cc(F)ccc2C2(C)CO2)C2CC2)c(C(F)F)n1 (stereo not shown) [I.6]	92
Cc1ccc(-c2csc3ccccc23)c(CN(C(=O)c2c(C(F)F)nn(C)c2F)C2CC2)c1 [I.160]	71

same assay, conditions: 500 ppm of active ingredient; wheat plants; 24 days after contamination

Structure (SMILES)	Efficacy [%]
Cn1ccc(-c2ccc(Cl)cc2CN(C(=O)c2c(C(F)F)nn(C)c2F)C2CC2)c1 [I.48]	86
Cn1cc(-c2ccc(Cl)cc2CN(C(=O)c2c(C(F)F)nn(C)c2F)C2CC2)cn1 [I.55]	95
Cn1cc(-c2ccc(F)cc2CN(C(=O)c2c(C(F)F)nn(C)c2F)C2CC2)cn1 [I.56]	100
Cn1nc(C(F)F)c(C(=O)N(Cc2ccccc2-c2cccs2)C2CC2)c1F [I.69]	97
Cn1cc(C(=O)N(Cc2ccccc2-c2ccsc2)C2CC2)c(C(F)F)n1 [I.70]	86
Cn1nc(C(F)F)c(C(=O)N(Cc2ccccc2-c2ccsc2)C2CC2)c1Cl [I.76]	75
Cn1nc(C(F)F)c(C(=O)N(Cc2cc(Cl)ccc2-c2csc3ccccc23)C2CC2)c1F [I.155]	86
Cn1nc(C(F)F)c(C(=O)N(Cc2ccccc2-c2csc3ccccc23)C2CC2)c1F [I.156]	96
Cn1nc(C(F)F)c(C(=O)N(Cc2ccccc2Oc2nc(Cl)cc(Cl)n2)C2CC2)c1F [I.168]	80
